Assay results published in patent US12391737B2, “Soluble NPY2 receptor agonists” (Boehringer Ingelheim International GmbH, priority 2020, dated 2025).
*1 amine or outer side, *2 acyl side, *3 side chain or, on linkers, in order; H or OH if unused. Where a SMILES comes first, the peptide text is derived from it. Side-chain parts run from the residue outwards. The star is where a group is joined. C18 diacid = O=C(O)CCCCCCCCCCCCCCCCC(=O)*; γGlu = O=C(O)[C@H](CCC(=O)[*:2])N[*:1]; Isovaleryl = CC(C)CC(=O)*; Ahx = NCCCCCC(=O)O

Legend:
[1] = target: T1, human NPY1 receptor (hY1R) (Homo sapiens, UniProt P25929); assay: HTRF cAMP Gi assay, hY1R; type: cell-based; conditions: CHO-K1 cells
T1 construct: expressed in transfected cells; host or cells: CHO-K1
T1 sequence (P25929 1-384): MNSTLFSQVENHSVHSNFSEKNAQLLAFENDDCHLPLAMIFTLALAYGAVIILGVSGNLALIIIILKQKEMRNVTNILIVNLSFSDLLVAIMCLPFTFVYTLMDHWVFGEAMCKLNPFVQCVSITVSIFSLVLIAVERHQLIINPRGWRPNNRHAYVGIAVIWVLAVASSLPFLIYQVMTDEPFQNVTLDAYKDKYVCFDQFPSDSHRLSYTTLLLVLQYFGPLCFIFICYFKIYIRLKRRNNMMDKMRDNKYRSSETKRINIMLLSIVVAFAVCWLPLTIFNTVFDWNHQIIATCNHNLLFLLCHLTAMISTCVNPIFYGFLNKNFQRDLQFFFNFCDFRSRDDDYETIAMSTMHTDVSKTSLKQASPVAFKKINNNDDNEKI

[2] = target: T2, human NPY5 receptor (hY5R) (Homo sapiens, UniProt Q15761); assay: HTRF cAMP Gi assay, hY5R
T2 sequence (Q15761 1-445): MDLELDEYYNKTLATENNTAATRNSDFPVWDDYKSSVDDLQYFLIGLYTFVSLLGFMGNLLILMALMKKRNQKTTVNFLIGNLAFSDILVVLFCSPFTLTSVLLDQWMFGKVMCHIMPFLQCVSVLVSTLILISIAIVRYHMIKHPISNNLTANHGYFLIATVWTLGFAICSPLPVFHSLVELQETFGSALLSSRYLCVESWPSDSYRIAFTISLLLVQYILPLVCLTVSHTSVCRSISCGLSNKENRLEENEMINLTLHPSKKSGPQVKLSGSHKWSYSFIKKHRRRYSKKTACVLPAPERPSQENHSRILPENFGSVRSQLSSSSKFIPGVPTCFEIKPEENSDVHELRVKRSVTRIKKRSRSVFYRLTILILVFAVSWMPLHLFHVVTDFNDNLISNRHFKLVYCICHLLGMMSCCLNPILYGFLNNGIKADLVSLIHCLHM
Description: (§1) Briefly, the production of intracellular cAMP will generate a competition between unlabeled cAMP and exogenously added d2-cAMP for anti-cAMP antibodies conjugated to cryptate. CHO-K1 cells stably expressing the human NPY1, NPY2, NPY4 and NPY5 receptors were used with the cells brought to life from a frozen stock immediately before assay performance. 2000 cells per well were applied for all four NPY receptor subtype assays. A 384-well format was used applying a total volume of 20 μl using 5 μl cells, 2.5 μl peptide agonist, 2.5 μl forskolin and 5 μl of each of the fluorophores. […] Concentration-response evaluation of compounds was performed with 11 concentrations of agonist peptides (covering 3 decades). EC50 values were calculated by nonlinear regression using sigmoid concentration-response with variable slope.

[3] = target: T3, human NPY4 receptor (hY4R) (Homo sapiens, UniProt P50391); assay: HTRF cAMP Gi assay, hY4R; type: cell-based; conditions: CHO-K1 cells
T3 construct: expressed in transfected cells; host or cells: CHO-K1
Description: as §1

Solubility determination = conditions: for Sol6: pH 6; for Sol7: pH 7
In short: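 Shake-flask style: 10 mg/ml peptide (TFA salt), 0.1 M sodium diphosphate pH 6.4/7.0, 600 rpm, 2 h, RT; filter; dilute 1 mg/ml in 50% MeCN; RP-UPLC, 0–100% B over 2 min, 50 °C. Solubility = sample/control area ratio. Final pH recorded.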

[4] = target: T4, Human Neuropeptide Y2 Receptor (Homo sapiens, UniProt P49146); assay: Radioligand binding competition assay (RLB); conditions: Table 3, 125I-PYY(1-36) competition; read-out: Ki
T4 construct: purchased CHEMICON HTS066M
T4 sequence (P49146 1-381): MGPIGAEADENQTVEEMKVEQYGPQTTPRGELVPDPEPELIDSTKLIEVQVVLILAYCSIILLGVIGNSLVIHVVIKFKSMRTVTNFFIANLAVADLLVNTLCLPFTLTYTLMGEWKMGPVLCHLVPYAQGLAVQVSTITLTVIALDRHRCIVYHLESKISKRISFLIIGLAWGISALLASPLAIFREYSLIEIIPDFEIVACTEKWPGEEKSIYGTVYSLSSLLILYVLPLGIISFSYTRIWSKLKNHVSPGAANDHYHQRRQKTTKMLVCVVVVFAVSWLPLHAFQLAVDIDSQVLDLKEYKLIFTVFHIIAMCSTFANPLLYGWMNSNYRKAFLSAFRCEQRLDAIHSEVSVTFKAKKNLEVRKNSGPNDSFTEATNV
In short: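 Receptor membranes, 0.5 μg/well; buffer 50 mM HEPES/5 mM MgCl2/1 mM CaCl2/0.2% ovalbumin, pH 7.4; 2 h RT, shaking. GF/C filtration, cold HEPES/500 mM NaCl wash, scintillation count. IC50 by nonlinear regression.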

T3 sequence (P50391 whole entry): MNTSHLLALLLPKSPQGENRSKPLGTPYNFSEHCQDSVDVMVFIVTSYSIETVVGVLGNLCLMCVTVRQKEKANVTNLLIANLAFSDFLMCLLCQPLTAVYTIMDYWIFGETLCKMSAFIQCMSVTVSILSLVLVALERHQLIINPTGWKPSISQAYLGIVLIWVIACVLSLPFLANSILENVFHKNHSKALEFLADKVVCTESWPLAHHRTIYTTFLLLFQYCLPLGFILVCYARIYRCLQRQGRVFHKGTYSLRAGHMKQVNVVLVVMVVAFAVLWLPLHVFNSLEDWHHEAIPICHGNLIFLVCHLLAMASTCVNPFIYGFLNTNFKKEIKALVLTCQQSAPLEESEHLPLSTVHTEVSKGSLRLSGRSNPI

CC[C@H](C)[C@H](NC(=O)[C@H](Cc1ccc(O)cc1)NC(=O)[C@H](Cc1ccc(O)cc1)NC(=O)[C@H](CCCNC(=N)N)NC(=O)[C@H](CCC(N)=O)NC(=O)[C@@H](NC(=O)[C@H](CCC(=O)O)NC(=O)[C@H](CCC(=O)O)NC(=O)[C@@H]1CCCN1C(=O)[C@H](CO)NC(=O)[C@H](C)NC(=O)[C@H](CC(=O)O)NC(=O)[C@H](C)NC(=O)[C@H](CCC(=O)O)NC(=O)[C@@H]1CCCN1C(=O)[C@H](CCCCNC(=O)CCCCCNC(=O)CC[C@H](NC(=O)CCCCCCCCCCCCCCCCC(=O)O)C(=O)O)NC(=O)[C@H](CCC(=O)O)NC(=O)[C@@H]1CCCN1C(=O)[C@H](C)NC(=O)CC(C)C)[C@@H](C)CC)C(=O)N[C@@H](CO)C(=O)N[C@@H](CC(C)C)C(=O)N[C@@H](CCCNC(=N)N)C(=O)N[C@@H](Cc1c[nH]cn1)C(=O)N[C@@H](Cc1ccc(O)cc1)C(=O)N[C@@H](Cc1ccc(O)cc1)C(=O)N[C@@H](CC(N)=O)C(=O)N[C@@H](Cc1c[nH]c2ccccc12)C(=O)N[C@@H](CC(C)C)C(=O)N[C@H](C(=O)N[C@@H](CCCNC(=N)N)C(=O)N[C@@H](CCC(N)=O)C(=O)N[C@@H](CCCNC(=N)N)C(=O)N[C@@H](Cc1ccc(O)cc1)C(N)=O)[C@@H](C)O [Compound 11, N{alpha-4}-(3-methylbutanoyl)-N{epsilon-7}-(6-[(4S)-4-carboxy-4-(17-carboxyheptadecanamido)butanamido]hexanoyl)[4A,7K,9E,10A,17I,18Q,22I,28Y,30W,31L]-hPYY(4-36)] (Isovaleryl-APEK([Ahx-γGlu-C18 diacid])PEADASPEEIQRYYISLRHYYNWLTRQRY-NH2)
EC50 [1]: > 5 µM
EC50 [2]: > 5 µM
EC50 [3]: > 5 µM
Sol6 (Solubility determination): 8.9 mg/mL
Sol7 (Solubility determination): 8.7 mg/mL
Ki [4]: 0.0014 µM

CC(C)CC(=O)N[C@@H](C)C(=O)N1CCC[C@H]1C(=O)N[C@@H](CCC(=O)O)C(=O)N[C@@H](CCCCNC(=O)CCCCCNC(=O)CC[C@H](NC(=O)CCCCCCCCCCCCCCCCC(=O)O)C(=O)O)C(=O)N1CCC[C@H]1C(=O)N[C@@H](CCC(=O)O)C(=O)N[C@@H](C)C(=O)N[C@@H](CCC(=O)O)C(=O)N[C@@H](C)C(=O)N[C@@H](CO)C(=O)N1CCC[C@H]1C(=O)N[C@@H](CCC(=O)O)C(=O)N[C@@H](CCC(=O)O)C(=O)N[C@@H](CC(C)C)C(=O)N[C@@H](CCC(N)=O)C(=O)N[C@@H](CCCNC(=N)N)C(=O)N[C@@H](Cc1ccc(O)cc1)C(=O)N[C@@H](Cc1ccc(O)cc1)C(=O)N[C@H](C(=O)N[C@@H](CO)C(=O)N[C@@H](CC(C)C)C(=O)N[C@@H](CCCNC(=N)N)C(=O)N[C@@H](Cc1c[nH]cn1)C(=O)N[C@@H](Cc1ccc(O)cc1)C(=O)N[C@@H](Cc1ccc(O)cc1)C(=O)N[C@@H](CC(N)=O)C(=O)N[C@@H](Cc1c[nH]c2ccccc12)C(=O)N[C@@H](CC(C)C)C(=O)N[C@H](C(=O)N[C@@H](CCCNC(=N)N)C(=O)N[C@@H](CCC(N)=O)C(=O)N[C@@H](CCCNC(=N)N)C(=O)N[C@@H](Cc1ccc(O)cc1)C(N)=O)[C@@H](C)O)C(C)C [Compound 122, N{alpha-4}-(3-methylbutanoyl)-N{epsilon-7}-(6-[(4S)-4-carboxy-4-(17-carboxyheptadecanamido)butanamido]hexanoyl)-[4A,7K,9E,10A,11E,18Q,22V,28Y,30W,31L]-hPYY(4-36)]
EC50 [1]: > 5 µM
EC50 [2]: > 5 µM
EC50 [3]: > 5 µM
Sol6 (Solubility determination): 9.8 mg/mL
Sol7 (Solubility determination): 9.9 mg/mL

CC[C@H](C)[C@H](NC(=O)[C@H](CCC(=O)O)NC(=O)[C@H](CCC(=O)O)NC(=O)[C@@H]1CCCN1C(=O)[C@H](CO)NC(=O)[C@H](C)NC(=O)[C@H](CC(=O)O)NC(=O)[C@H](CCC(=O)O)NC(=O)[C@@H]1CCCN1C(=O)[C@@H]1CCCN1C(=O)[C@H](CCCCNC(=O)CCCCCNC(=O)CC[C@H](NC(=O)CCCCCCCCCCCCCCCCC(=O)O)C(=O)O)NC(=O)[C@H](CCC(=O)O)NC(=O)[C@@H]1CCCN1C(=O)[C@H](C)NC(=O)CC(C)C)C(=O)N[C@@H](CCC(N)=O)C(=O)N[C@@H](CCCNC(=N)N)C(=O)N[C@@H](Cc1ccc(O)cc1)C(=O)N[C@@H](Cc1ccc(O)cc1)C(=O)N[C@H](C(=O)N[C@@H](CO)C(=O)N[C@@H](CC(C)C)C(=O)N[C@@H](CCCNC(=N)N)C(=O)N[C@@H](Cc1c[nH]cn1)C(=O)N[C@@H](Cc1ccc(O)cc1)C(=O)N[C@@H](Cc1ccc(O)cc1)C(=O)N[C@@H](CC(N)=O)C(=O)N[C@@H](Cc1c[nH]c2ccccc12)C(=O)N[C@@H](CC(C)C)C(=O)N[C@H](C(=O)N[C@@H](CCCNC(=N)N)C(=O)N[C@@H](CCC(N)=O)C(=O)N[C@@H](CCCNC(=N)N)C(=O)N[C@@H](Cc1ccc(O)cc1)C(N)=O)[C@@H](C)O)C(C)C [Compound 172, N{alpha-4}-(3-methylbutanoyl)-N{epsilon-7}-(6-[(4S)-4-carboxy-4-(17-carboxyheptadecanamido)butanamido]hexanoyl)-[4A,7K,9P,17I,18Q,22V,28Y,30W,31L]-hPYY(4-36)]
EC50 [2]: > 5 µM
Sol6 (Solubility determination): 10.0 mg/mL
Sol7 (Solubility determination): >10.0 mg/mL
Ki [4]: 0.00081 µM

CC[C@H](C)[C@H](NC(=O)[C@H](CCC(=O)O)NC(=O)[C@H](CCC(=O)O)NC(=O)[C@@H]1CCCN1C(=O)[C@H](CO)NC(=O)[C@H](C)NC(=O)[C@H](CC(=O)O)NC(=O)[C@H](CCC(=O)O)NC(=O)[C@H](CCC(=O)O)NC(=O)[C@H](C)NC(=O)[C@H](CCCCNC(=O)CCCCCNC(=O)CC[C@H](NC(=O)CCCCCCCCCCCCCCCCC(=O)O)C(=O)O)NC(=O)[C@H](CCC(=O)O)NC(=O)[C@@H]1CCCN1C(=O)[C@H](C)NC(=O)CC(C)C)C(=O)N[C@@H](CCC(N)=O)C(=O)N[C@@H](CCCNC(=N)N)C(=O)N[C@@H](Cc1ccc(O)cc1)C(=O)N[C@@H](Cc1ccc(O)cc1)C(=O)N[C@H](C(=O)N[C@@H](CO)C(=O)N[C@@H](CC(C)C)C(=O)N[C@@H](CCCNC(=N)N)C(=O)N[C@@H](Cc1c[nH]cn1)C(=O)N[C@@H](Cc1ccc(O)cc1)C(=O)N[C@@H](Cc1ccc(O)cc1)C(=O)N[C@@H](CC(N)=O)C(=O)N[C@@H](Cc1c[nH]c2ccccc12)C(=O)N[C@@H](CC(C)C)C(=O)N[C@H](C(=O)N[C@@H](CCCNC(=N)N)C(=O)N[C@@H](CCC(N)=O)C(=O)N[C@@H](CCCNC(=N)N)C(=O)N[C@@H](Cc1ccc(O)cc1)C(N)=O)[C@@H](C)O)C(C)C [Compound 183, N{alpha-4}-(3-methylbutanoyl)-N{epsilon-7}-(6-[(4S)-4-carboxy-4-(17-carboxyheptadecanamido)butanamido]hexanoyl)-[4A,7K,8A,9E,17I,18Q,22V,28Y,30W,31L]-hPYY(4-36)]
EC50 [2]: > 5 µM
Sol6 (Solubility determination): 8.4 mg/mL
Sol7 (Solubility determination): 8.7 mg/mL
Ki [4]: 0.0188 µM
